In ChEMBL document CHEMBL6109084 (Eur J Med Chem, 2025):
Converted amounts (≈) assume the structure as drawn. “And” between values parts separate entries of the source, which are not always exact repeats. Identical values can stand only once. The source made the active and inactive calls. No cut-off for these calls is given here.

What was measured:
[1] = Plasma protein binding in human; assay type: ADME, cell-free; details: read-out: PPB (converted)
Coagulation factor XI = Coagulation factor XI (Homo sapiens, UniProt P03951); assay: Inhibition of human FXIa using p-Glu-Pro-Arg-pNA.HCl as substrate incubated for 30 mins followed by substrate addition and measured after 60 mins by microplate reader analysis
Plasma [2] = assay: Anticoagulant activity in citrated human plasma assessed as prolongation of activated partial thromboplastin time at 1 uM incubated for 3 mins by aPTT reagent based automated coagulometric analysis relative to control; assay type: functional; details: 0.05 h
[3] = Toxicity in C57BL/6J mouse assessed as prolongation of bleeding time at 10 mg/kg, IG measured after 30 mins by tail bleeding assay; assay type: organism-based; details: in vivo, po, 0.5 h
[4] = Toxicity in male New Zealand white rabbit assessed as prolongation of bleeding time at 2 mg/kg, iv by ear bleeding assay; assay type: organism-based, Oryctolagus cuniculus; details: in vivo
HepG2 = assay: Cytotoxicity against human HepG2 cells assessed as reduction in cell viability at 1 to 50 uM incubated for 24 hrs by MTT assay; assay type: toxicity, cell-based; details: hepg2, 24 h, dose 1-50 µM
HK-2 [5] = assay: Cytotoxicity against human HK-2 cells assessed as reduction in cell viability at 1 to 50 uM incubated for 24 hrs by MTT assay; assay type: toxicity, cell-based; details: hk-2, 24 h, dose 1-50 µM
[6] = Cytotoxicity against human AC16 [Human hybrid] cells assessed as reduction in cell viability at 1 to 50 uM incubated for 24 hrs by MTT assay; assay type: toxicity, cell-based; details: dose 1-50 µM
[7] = Apparent permeability in MDCK-MDR1 cells; assay type: ADME, cell-based, Canis lupus familiaris; details: dog
[8] = Metabolic stability in human liver microsome assessed as half life; assay type: ADME; details: liver microsomes
[9] = Selectivity index, ratio of IC50 for inhibition of plasmin (unknown origin) using PyroGlu-Phe-Lys-pNA.HCl as substrate to IC50 for inhibition of human FXIa using p-Glu-Pro-Arg-pNA.HCl as substrate
Prothrombin = Prothrombin (Homo sapiens, UniProt P00734); assay: Inhibition of thrombin (unknown origin) using H-D-Phe-Pip-Arg-pNA.2HCl as substrate incubated for 30 mins followed by substrate addition and measured after 60 mins by microplate reader analysis
Coagulation factor X = Coagulation factor X (Homo sapiens, UniProt P00742); assay: Inhibition of FXa (unknown origin) using Z-D-Arg-Gly-Arg-pNA.2HCl as substrate incubated for 30 mins followed by substrate addition and measured after 60 mins by microplate reader analysis
physchem = details: aqueous medium, pH 7.4
Description: Aqueous solubility of the compound in DMSO at pH 7.4 incubated for 12 hrs by turbidimetric based UV spectrophotometric analysis

[10] = Selectivity index, ratio of IC50 for inhibition of thrombin (unknown origin) using H-D-Phe-Pip-Arg-pNA.2HCl as substrate to IC50 for inhibition of human FXIa using p-Glu-Pro-Arg-pNA.HCl as substrate
Chymotrypsin = Chymotrypsin (Homo sapiens, UniProt Q99895+P17538+P40313+Q6GPI1); assay: Inhibition of chymotrypsin (unknown origin) using N-Suc-Ala-Ala-Pro-Phe-pNA as substrate incubated for 30 mins followed by substrate addition and measured after 60 mins by microplate reader analysis; assay type: protein assay
Plasminogen = Plasminogen (Homo sapiens, UniProt P00747); assay: Inhibition of plasmin (unknown origin) using PyroGlu-Phe-Lys-pNA.HCl as substrate incubated for 30 mins followed by substrate addition and measured after 60 mins by microplate reader analysis
Plasma [11] = assay: Anticoagulant activity in citrated human plasma assessed as prolongation of activated partial thromboplastin time incubated for 3 mins by aPTT reagent based automated coagulometric analysis; assay type: functional; details: for EC1.5: 0.05 h
[12] = Selectivity index, ratio of IC50 for inhibition of trypsin (unknown origin) using Bz-Ile-Glu(gamma-OR)-Gly-Arg-pNA.HCl as substrate to IC50 for inhibition of human FXIa using p-Glu-Pro-Arg-pNA.HCl as substrate
[13] = Selectivity index, ratio of IC50 for inhibition of FXIIa (unknown origin) using H-D-ProPhe-Arg-pNA.2HCl as substrate to IC50 for inhibition of human FXIa using p-Glu-Pro-Arg-pNA.HCl as substrate
[14] = Selectivity index, ratio of IC50 for inhibition of FXa (unknown origin) using Z-D-Arg-Gly-Arg-pNA.2HCl as substrate to IC50 for inhibition of human FXIa using p-Glu-Pro-Arg-pNA.HCl as substrate
[15] = molecular target: Tissue-type plasminogen activator (Homo sapiens, UniProt P00750); assay: Inhibition of tPA (unknown origin) using H-D-Ile-Pro-Arg-pNA-2HCl as substrate incubated for 30 mins followed by substrate addition and measured after 60 mins by microplate reader analysis
Plasma [16] = assay: Anticoagulant activity in citrated human plasma assessed as prolongation of prothrombin time incubated for 3 mins by PT reagent based automated coagulometric analysis; assay type: functional, cell-free
Plasma kallikrein = Plasma kallikrein (Homo sapiens, UniProt P03952); assay: Inhibition of PKal (unknown origin) using H-D-Pro-Phe-Arg-pNA.2HCl as substrate incubated for 30 mins followed by substrate addition and measured after 60 mins by microplate reader analysis
Coagulation factor XII = molecular target: T1, Coagulation factor XII (Homo sapiens, UniProt P00748); assay: Inhibition of FXIIa (unknown origin) using H-D-ProPhe-Arg-pNA.2HCl as substrate incubated for 30 mins followed by substrate addition and measured after 60 mins by microplate reader analysis
T1 sequence (P00748 whole entry): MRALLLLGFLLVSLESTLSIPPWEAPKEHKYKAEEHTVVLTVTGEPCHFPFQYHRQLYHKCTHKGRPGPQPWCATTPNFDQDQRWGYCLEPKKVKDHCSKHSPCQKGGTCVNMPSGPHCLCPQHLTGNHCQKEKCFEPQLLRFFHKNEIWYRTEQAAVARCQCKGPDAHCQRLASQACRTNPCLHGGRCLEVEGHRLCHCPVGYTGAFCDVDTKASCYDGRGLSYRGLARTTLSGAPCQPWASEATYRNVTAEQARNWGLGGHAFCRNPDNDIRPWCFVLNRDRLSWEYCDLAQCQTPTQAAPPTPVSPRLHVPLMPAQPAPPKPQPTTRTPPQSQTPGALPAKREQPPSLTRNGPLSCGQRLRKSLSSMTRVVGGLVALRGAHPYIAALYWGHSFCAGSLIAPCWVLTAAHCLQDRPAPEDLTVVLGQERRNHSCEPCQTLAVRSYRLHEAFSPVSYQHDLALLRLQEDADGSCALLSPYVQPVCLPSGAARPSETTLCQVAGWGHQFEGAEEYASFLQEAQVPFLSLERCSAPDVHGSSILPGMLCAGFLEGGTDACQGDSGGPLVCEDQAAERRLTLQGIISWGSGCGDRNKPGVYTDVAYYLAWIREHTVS

[17] = Selectivity index, ratio of IC50 for inhibition of tPA (unknown origin) using H-D-Ile-Pro-Arg-pNA-2HCl as substrate to IC50 for inhibition of human FXIa using p-Glu-Pro-Arg-pNA.HCl as substrate
[18] = Selectivity index, ratio of IC50 for inhibition of chymotrypsin (unknown origin) using N-Suc-Ala-Ala-Pro-Phe-pNA as substrate to IC50 for inhibition of human FXIa using p-Glu-Pro-Arg-pNA.HCl as substrate
Trypsin = Trypsin (Homo sapiens, UniProt P07477+P07478+P35030); assay: Inhibition of trypsin (unknown origin) using Bz-Ile-Glu(gamma-OR)-Gly-Arg-pNA.HCl as substrate incubated for 30 mins followed by substrate addition and measured after 60 mins by microplate reader analysis; assay type: protein assay
Plasma [19] = assay: Anticoagulant activity in mouse plasma assessed as prolongation of activated partial thromboplastin time incubated for 3 mins by aPTT reagent based automated coagulometric analysis; assay type: functional; details: 0.05 h
[20] = Toxicity in C57BL/6J mouse assessed as prolongation of bleeding time at 30 mg/kg, IG measured after 30 mins by tail bleeding assay; assay type: organism-based; details: in vivo, po, 0.5 h
HK-2 [21] = assay: Cytotoxicity against human HK-2 cells assessed as reduction in cell viability at 50 uM incubated for 24 hrs by MTT assay; assay type: toxicity, cell-based; details: hk-2, 24 h
Mus musculus [22] = assay: Antithrombotic activity in FeCl3-induced carotid arterial thrombosis C57BL/6J mouse model assessed as increase in blood flow velocity at 10 mg/kg, po measured after 0.5 to 4 hrs; assay type: functional, organism-based; details: time 0.5-4 hrs
Mus musculus [23] = assay: Antithrombotic activity in FeCl3-induced carotid arterial thrombosis C57BL/6J mouse model assessed as increase in peak velocity at 10 mg/kg, po measured after 0.5 to 4 hrs; assay type: functional, organism-based; details: time 0.5-4 hrs
HK-2 [24] = assay: Cytotoxicity against human HK-2 cells assessed as reduction in cell viability at 10 to 50 uM incubated for 24 hrs by MTT assay; assay type: toxicity, cell-based; details: hk-2, 24 h, dose 10-50 µM

Coagulation factor X, sequence (P00742 41-179 limits assumed): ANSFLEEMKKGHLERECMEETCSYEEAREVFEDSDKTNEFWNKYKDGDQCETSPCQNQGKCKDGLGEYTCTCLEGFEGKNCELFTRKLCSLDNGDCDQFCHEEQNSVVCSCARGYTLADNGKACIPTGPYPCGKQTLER
Coagulation factor X, sequence (P00742 235-488 limits assumed): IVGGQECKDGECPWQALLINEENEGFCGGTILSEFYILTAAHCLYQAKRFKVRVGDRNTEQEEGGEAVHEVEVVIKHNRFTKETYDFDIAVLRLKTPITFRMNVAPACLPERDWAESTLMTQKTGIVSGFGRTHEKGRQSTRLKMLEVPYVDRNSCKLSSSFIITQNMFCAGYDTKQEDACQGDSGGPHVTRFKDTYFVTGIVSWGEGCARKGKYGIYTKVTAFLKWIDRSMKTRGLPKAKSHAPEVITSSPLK
Coagulation factor XI, sequence (P03951 19-387 limits assumed): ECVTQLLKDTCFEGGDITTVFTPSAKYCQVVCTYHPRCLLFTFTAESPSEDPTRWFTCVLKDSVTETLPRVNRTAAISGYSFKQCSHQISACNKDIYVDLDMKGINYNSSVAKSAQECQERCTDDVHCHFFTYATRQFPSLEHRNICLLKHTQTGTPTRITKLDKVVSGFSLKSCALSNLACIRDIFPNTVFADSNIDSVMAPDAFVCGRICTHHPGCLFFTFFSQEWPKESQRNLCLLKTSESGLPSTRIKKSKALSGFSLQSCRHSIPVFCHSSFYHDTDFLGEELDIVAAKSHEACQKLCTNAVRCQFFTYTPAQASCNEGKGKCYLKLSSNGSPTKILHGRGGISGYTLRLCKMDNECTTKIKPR
Coagulation factor XI, sequence (P03951 388-625 limits assumed): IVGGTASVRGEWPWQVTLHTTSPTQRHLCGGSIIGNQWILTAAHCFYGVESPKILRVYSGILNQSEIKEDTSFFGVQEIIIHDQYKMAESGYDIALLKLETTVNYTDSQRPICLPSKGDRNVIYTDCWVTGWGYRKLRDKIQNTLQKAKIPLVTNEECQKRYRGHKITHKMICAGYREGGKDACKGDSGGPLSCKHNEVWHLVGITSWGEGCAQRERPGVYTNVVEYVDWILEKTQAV
Plasminogen, sequence (P00747 97-580 limits assumed): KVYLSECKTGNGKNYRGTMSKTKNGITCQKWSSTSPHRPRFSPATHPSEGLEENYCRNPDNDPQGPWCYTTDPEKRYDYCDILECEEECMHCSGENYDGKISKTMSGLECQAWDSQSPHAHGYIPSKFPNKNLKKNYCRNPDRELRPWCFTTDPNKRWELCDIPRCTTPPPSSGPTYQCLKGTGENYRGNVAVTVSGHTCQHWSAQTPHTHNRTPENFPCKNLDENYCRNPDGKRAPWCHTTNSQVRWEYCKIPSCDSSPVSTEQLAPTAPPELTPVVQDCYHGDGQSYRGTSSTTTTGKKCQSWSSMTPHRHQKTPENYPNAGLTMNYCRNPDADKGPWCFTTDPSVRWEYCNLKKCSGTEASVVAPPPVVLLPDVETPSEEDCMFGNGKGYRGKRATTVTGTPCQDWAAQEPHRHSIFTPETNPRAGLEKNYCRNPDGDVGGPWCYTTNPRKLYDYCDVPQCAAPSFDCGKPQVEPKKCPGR
Plasminogen, sequence (P00747 581-810 limits assumed): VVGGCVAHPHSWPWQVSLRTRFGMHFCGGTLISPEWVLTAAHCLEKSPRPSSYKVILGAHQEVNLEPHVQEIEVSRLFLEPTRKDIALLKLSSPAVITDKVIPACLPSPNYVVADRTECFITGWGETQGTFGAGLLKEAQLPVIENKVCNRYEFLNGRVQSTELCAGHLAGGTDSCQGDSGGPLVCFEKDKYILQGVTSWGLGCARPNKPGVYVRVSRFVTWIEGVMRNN
Plasma kallikrein, sequence (P03952 20-390 limits assumed): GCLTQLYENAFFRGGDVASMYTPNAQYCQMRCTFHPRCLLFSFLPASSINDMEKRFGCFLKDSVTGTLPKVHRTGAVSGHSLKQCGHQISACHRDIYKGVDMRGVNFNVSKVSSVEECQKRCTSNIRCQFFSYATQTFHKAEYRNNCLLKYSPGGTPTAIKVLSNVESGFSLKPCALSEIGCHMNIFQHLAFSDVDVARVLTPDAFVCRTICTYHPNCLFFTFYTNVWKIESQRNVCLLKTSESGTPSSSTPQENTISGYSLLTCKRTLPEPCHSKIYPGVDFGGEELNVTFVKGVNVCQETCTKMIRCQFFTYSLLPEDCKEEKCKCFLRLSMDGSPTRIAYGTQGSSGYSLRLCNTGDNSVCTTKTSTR
Plasma kallikrein, sequence (P03952 391-638 limits assumed): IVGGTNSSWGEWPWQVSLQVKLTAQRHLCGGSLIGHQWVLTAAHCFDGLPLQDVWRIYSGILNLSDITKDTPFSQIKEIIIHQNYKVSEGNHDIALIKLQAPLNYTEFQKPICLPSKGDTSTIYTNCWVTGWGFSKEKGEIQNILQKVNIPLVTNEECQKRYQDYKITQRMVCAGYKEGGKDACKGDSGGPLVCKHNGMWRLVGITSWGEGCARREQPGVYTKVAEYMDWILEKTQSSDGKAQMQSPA
Tissue-type plasminogen activator, sequence (P00750 whole entry): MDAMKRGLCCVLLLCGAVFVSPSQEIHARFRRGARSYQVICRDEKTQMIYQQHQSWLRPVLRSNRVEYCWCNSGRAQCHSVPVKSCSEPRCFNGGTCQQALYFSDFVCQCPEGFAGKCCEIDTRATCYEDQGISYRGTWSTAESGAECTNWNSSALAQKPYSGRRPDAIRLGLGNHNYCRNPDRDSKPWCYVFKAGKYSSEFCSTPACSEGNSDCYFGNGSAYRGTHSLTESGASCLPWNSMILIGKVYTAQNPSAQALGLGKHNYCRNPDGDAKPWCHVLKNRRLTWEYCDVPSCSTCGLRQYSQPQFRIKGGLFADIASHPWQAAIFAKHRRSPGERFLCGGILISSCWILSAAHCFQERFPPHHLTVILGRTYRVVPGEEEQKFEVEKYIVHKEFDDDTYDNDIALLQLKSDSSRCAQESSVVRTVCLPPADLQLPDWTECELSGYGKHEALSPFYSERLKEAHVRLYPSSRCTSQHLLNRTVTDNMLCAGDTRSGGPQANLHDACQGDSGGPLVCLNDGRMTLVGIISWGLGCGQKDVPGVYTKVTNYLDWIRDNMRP

SMILES	IC50 (Coagulation factor XI)	Ratio IC50 [9]	IC50 (Prothrombin)	IC50 (Coagulation factor X)	Ratio IC50 [10]	IC50 (Chymotrypsin)	IC50 (Plasminogen)	Ratio IC50 [12]	Ratio IC50 [13]	Ratio IC50 [14]	IC50 [15]	IC50 (Plasma kallikrein)	IC50 (Coagulation factor XII)	Ratio IC50 [17]	Ratio IC50 [18]	IC50 (Trypsin)	Activity (Plasma [2])	Activity (Plasma [11])	EC1.5 (Plasma [11])	Activity (Plasma [16])	also measured
O=C(NC[C@H]1CN(c2ccc(N3CCOCC3=O)cc2)C(=O)O1)c1ccc(Cl)s1 [RIVAROXABAN]	–	–	–	–	–	–	–	–	–	–	–	–	–	–	–	–	–	–	–	–	Activity [3]: Toxic; Activity [4]: Toxic; Activity (HepG2): Non-toxic; Activity (HK-2 [5]): Non-toxic; Activity [6]: Non-toxic
COc1cn(Cc2cc(-c3ccc(N)nc3)ccn2)c(=O)cc1-c1cc(Cl)ccc1-n1cnnn1	0.00019 µM	> 1000	> 1 µM	> 1 µM	> 1000	> 1 µM	> 1 µM	> 1000	> 1000	> 1000	> 1 µM	0.097 µM	> 1 µM	> 1000	> 1000	> 1 µM	193.8%	Dose-dependent-effect	0.57 µM	inactive	Papp [7]: 0.13 ×10⁻⁶ cm/s; half-life [8]: > 3 h; solubility kinetic at 12 h (physchem): 193 µg/mL (≈ 396 µM); Activity (HepG2): Non-toxic; Activity (HK-2 [5]): Non-toxic; Activity [6]: Non-toxic
CC[C@@H](C(=O)Nc1ccc(C(N)=O)c(F)c1)n1cc(OC)c(-c2cc(Cl)ccc2-n2cc(C(F)(F)F)nn2)cc1=O	–	–	> 1 µM	> 1 µM	–	> 1 µM	> 1 µM	–	–	–	> 1 µM	–	> 1 µM	–	–	> 1 µM	250.8%	Dose-dependent-effect	0.42 µM	–	EC1.5 (Plasma [19]): >=9.3 uM and >12.5 uM; Activity (HepG2): Non-toxic; Activity (HK-2 [5]): Non-toxic; Activity [6]: Non-toxic; Activity [20]: Non-toxic
CC[C@@H](c1cc(-c2ccc(N)nc2)ccn1)n1cc(OC)c(-c2cc(Cl)ccc2-n2cnnn2)cc1=O	0.00013 µM	> 1000	> 1 µM	> 1 µM	> 1000	> 1 µM	> 1 µM	> 1000	> 1000	> 1000	> 1 µM	0.037 µM	> 1 µM	> 1000	> 1000	> 1 µM	368.3%	Dose-dependent-effect	0.29 µM	inactive	EC1.5 (Plasma [19]): 1.8 µM; Activity (HK-2 [21]): Toxic
CC[C@@H](C(=O)Nc1ccc(C(N)=O)c(F)c1)n1cc(OC)c(-c2cc(Cl)ccc2-n2cc(Cl)nn2)cc1=O	–	–	–	–	–	–	–	–	–	–	–	–	–	–	–	–	248.2%	–	–	–	Activity (Mus musculus [22]): Active; Outperformed Asundexian And Compound F; Activity (Mus musculus [23]): Active; EC1.5 (Plasma [19]): 2.7 µM
CCC(c1cc(-c2ccc(N)nc2)ccn1)n1cc(OC)c(-c2cc(Cl)ccc2-n2cnnn2)cc1=O (racemic)	0.00037 µM	> 1000	> 1 µM	> 1 µM	> 1000	> 1 µM	> 1 µM	> 1000	> 1000	> 1000	> 1 µM	0.081 µM	> 1 µM	> 1000	> 1000	> 1 µM	210.1%	Dose-dependent-effect	0.58 µM	inactive	solubility kinetic at 12 h (physchem): 108 µg/mL (≈ 210 µM); Activity (HK-2 [24]): Toxic
CC[C@H](c1cc(-c2ccc(N)nc2)ccn1)n1cc(OC)c(-c2cc(Cl)ccc2-n2cnnn2)cc1=O	0.0106 µM	–	–	–	–	–	–	–	–	–	–	–	–	–	–	–	59.6%	–	–	–	Activity (HK-2 [21]): Toxic

The remaining compounds from weak to strong by IC50 (Coagulation factor XI), led by results:

IC50 (Coagulation factor XI)	Ratio IC50 [9]	IC50 (Prothrombin)	IC50 (Coagulation factor X)	Ratio IC50 [10]	IC50 (Chymotrypsin)	IC50 (Plasminogen)	Ratio IC50 [12]	Ratio IC50 [13]	Ratio IC50 [14]	IC50 [15]	IC50 (Plasma kallikrein)	IC50 (Coagulation factor XII)	Ratio IC50 [17]	Ratio IC50 [18]	IC50 (Trypsin)	SMILES	Activity (Plasma [2])	Activity (Plasma [11])	EC1.5 (Plasma [11])	Activity (Plasma [16])	also measured
0.0012 µM	–	–	–	–	–	–	–	–	–	–	–	–	–	–	–	COc1cn(Cc2cc(-c3ccncc3)ccn2)c(=O)cc1-c1cc(Cl)ccc1-n1cnnn1	167.2%	–	–	–	fraction unbound [1]: 0.159
0.0005 µM	–	–	–	–	–	–	–	–	–	–	–	–	–	–	–	COc1cn(Cc2cccc(-c3ccncc3)c2)c(=O)cc1-c1cc(Cl)ccc1-n1cnnn1	122.1%	–	–	–	fraction unbound [1]: 0.027
0.00031 µM	> 1000	> 1 µM	> 1 µM	> 1000	> 1 µM	> 1 µM	> 1000	> 1000	> 1000	> 1 µM	0.036 µM	> 1 µM	> 1000	> 1000	> 1 µM	CC[C@@H](c1cc(-c2ccc(N)nc2F)ccn1)n1cc(OC)c(-c2cc(Cl)ccc2-n2cnnn2)cc1=O	335.4%	Dose-dependent-effect	0.34 µM	inactive	EC1.5 (Plasma [19]): 1.5 µM
0.00024 µM	–	–	–	–	–	–	–	–	–	–	–	–	–	–	–	CCC(c1cccc(-c2ccc(N)nc2)c1)n1cc(OC)c(-c2cc(Cl)ccc2-n2cnnn2)cc1=O (configuration not stated)	45.7%	–	–	–	fraction unbound [1]: 0.004
